According to ChEMBL document CHEMBL1201862, “PubChem BioAssay data set” (2004):
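Briefly, cells in 96-well plates were exposed to five compound concentrations for 48 h, and endpoints were estimated by linear interpolation. GI50: concentration for 50% inhibition of growth.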 The source made the active and inactive calls. Cut-off read from the data, not from the text of the source: active = GI50 up to about 1.1 µM and inactive = higher.

Key:
Assay in all cases: DTP human tumour cell line panel, 48 h
HOP-62 = tested on: HOP-62
MOLT-4 = tested on: MOLT-4
M14 = tested on: M14
TK-10 = tested on: TK-10
SF-539 = tested on: SF-539
Malme-3M = tested on: Malme-3M
UO-31 = tested on: UO-31
RXF 393 = tested on: RXF 393
ACHN = tested on: ACHN
EKVX = tested on: EKVX
NCI-H460 = tested on: NCI-H460
OVCAR-5 = tested on: OVCAR-5
HT-29 = tested on: HT-29
SK-MEL-28 = tested on: SK-MEL-28
K562 = tested on: K562
NCI-H522 = tested on: NCI-H522
IGROV-1 = tested on: IGROV-1
SK-OV-3 = tested on: SK-OV-3
HCT-116 = tested on: HCT-116
NCI/ADR-RES = tested on: NCI/ADR-RES

SMILES | GI50 (HOP-62) | GI50 (MOLT-4) | GI50 (M14) | GI50 (TK-10) | GI50 (SF-539) | GI50 (Malme-3M) | GI50 (UO-31) | GI50 (RXF 393) | GI50 (ACHN) | GI50 (EKVX) | GI50 (NCI-H460) | GI50 (OVCAR-5) | GI50 (HT-29) | GI50 (SK-MEL-28) | GI50 (K562) | GI50 (NCI-H522) | GI50 (IGROV-1) | GI50 (SK-OV-3) | GI50 (HCT-116) | GI50 (NCI/ADR-RES)
C[C@]12C/C(=C/O)C(=O)C(O)=C1CC[C@@H]1C2CC[C@@]2(C)C1CC[C@@H]2O (stereo partly specified) | 46.7 µM (inactive) | 26.4 µM (inactive) | 17.9 µM (inactive) | 42.1 µM (inactive) | 18.7 µM (inactive) | 20.8 µM (inactive) | 16.3 µM (inactive) | 20.7 µM (inactive) | 27.8 µM (inactive) | 26.3 µM (inactive) | 21.8 µM (inactive) | 21 µM (inactive) | 25.3 µM (inactive) | 21.5 µM (inactive) | 22.3 µM (inactive) | 15.6 µM (inactive) | 21.7 µM (inactive) | 27.5 µM (inactive) |  | 
O=C(c1cccs1)N(C(=S)N1CCN(c2ccccc2)CC1)C1CCCCC1 | > 100 µM (inactive) | > 100 µM (inactive) | > 100 µM (inactive) | > 100 µM (inactive) | > 100 µM (inactive) | > 100 µM (inactive) | > 100 µM (inactive) | > 100 µM (inactive) | > 100 µM (inactive) |  | > 100 µM (inactive) | > 100 µM (inactive) | > 100 µM (inactive) | > 100 µM (inactive) | > 100 µM (inactive) | > 100 µM (inactive) | > 100 µM (inactive) | > 100 µM (inactive) | > 100 µM (inactive) | 
N#Cc1ccc(/C=C(/C(=O)c2ccccc2)c2ccccc2)cc1 | 17.9 µM (inactive) | 2.99 µM (inactive) | 13.3 µM (inactive) | 24 µM (inactive) | 21.2 µM (inactive) | 12.6 µM (inactive) | 14.2 µM (inactive) | 17.8 µM (inactive) | 15.5 µM (inactive) | 18.8 µM (inactive) | 16.5 µM (inactive) | 18 µM (inactive) | 8.18 µM (inactive) | 15.8 µM (inactive) | 2.6 µM (inactive) | 8.41 µM (inactive) | 23.7 µM (inactive) | 20.5 µM (inactive) | 4.18 µM (inactive) | 
CC(C)CCCC(C)[C@H]1CCC2[C@@H]3CCC4Nc5nocc5C[C@]4(C)C3CC[C@@]21C (stereo partly specified) | 47.1 µM (inactive) | 18.2 µM (inactive) | 16.3 µM (inactive) | 8.07 µM (inactive) | 18.9 µM (inactive) | 15.5 µM (inactive) | 14.6 µM (inactive) | 14.8 µM (inactive) | 14.7 µM (inactive) | 16.1 µM (inactive) | 20 µM (inactive) | > 10 µM (inactive) | 18.5 µM (inactive) |  | 15.8 µM (inactive) | 3.15 µM (inactive) | 25.6 µM (inactive) | 19.4 µM (inactive) | 18.4 µM (inactive) | 
c1cc(CSP234N5CCN2CCN3CCN4CC5)ccc1CSP123N4CCN1CCN2CCN3CC4 | > 100 µM (inactive) | 91.4 µM (inactive) | > 100 µM (inactive) | > 100 µM (inactive) | 64.6 µM (inactive) |  | 99.8 µM (inactive) |  | > 100 µM (inactive) | > 100 µM (inactive) | > 100 µM (inactive) | > 100 µM (inactive) | 53.2 µM (inactive) | > 100 µM (inactive) | < 0.01 µM (active) | 52 µM (inactive) | > 100 µM (inactive) |  | 72.8 µM (inactive) | > 100 µM (inactive)
CC(=O)O[C@H]1CC[C@@]2(C)C(=CC[C@H]3C4=CC=C(C(C)=O)[C@@]4(C)CCC32)C1 (stereo partly specified) | > 100 µM (inactive) | 11.4 µM (inactive) | 33.7 µM (inactive) | 23.7 µM (inactive) | 47 µM (inactive) | 31.9 µM (inactive) | 43.7 µM (inactive) | 26.5 µM (inactive) | 34.1 µM (inactive) | 13.1 µM (inactive) | 43.7 µM (inactive) | 27.9 µM (inactive) | 34.4 µM (inactive) | 31 µM (inactive) |  | 20 µM (inactive) | 56.2 µM (inactive) | > 100 µM (inactive) | 15.6 µM (inactive) | 
OCC(O)COc1ccc(F)cc1 (stereo unspecified) | > 100 µM (inactive) | > 100 µM (inactive) | > 100 µM (inactive) | > 100 µM (inactive) | > 100 µM (inactive) | > 100 µM (inactive) | > 100 µM (inactive) | > 100 µM (inactive) | > 100 µM (inactive) | > 100 µM (inactive) | > 100 µM (inactive) | > 100 µM (inactive) | > 100 µM (inactive) | > 100 µM (inactive) | > 100 µM (inactive) | > 100 µM (inactive) | > 100 µM (inactive) | > 100 µM (inactive) | > 100 µM (inactive) | 
C/C=C/C(=O)Oc1cccc2cccnc12 | 26.7 µM (inactive) | > 20.6 µM (inactive) | 3.79 µM (inactive) | 44.2 µM (inactive) | 7.83 µM (inactive) | 1.45 µM (inactive) | 6.97 µM (inactive) | 12.4 µM (inactive) | 18.2 µM (inactive) | 6.85 µM (inactive) | 3.32 µM (inactive) | 16.5 µM (inactive) | 19.7 µM (inactive) | 14.5 µM (inactive) | 6.08 µM (inactive) | 1.82 µM (inactive) | 24.6 µM (inactive) | 32.9 µM (inactive) | 3.76 µM (inactive) | 
COc1cc(C2SCC(=O)N2c2cc(Cl)c(Cl)cc2Cl)cc(OC)c1OC (stereo unspecified) |  | 23.9 µM (inactive) | 54.2 µM (inactive) | > 100 µM (inactive) | 43.1 µM (inactive) |  | 34.7 µM (inactive) |  | 42.3 µM (inactive) | 37.3 µM (inactive) | 36.3 µM (inactive) | > 100 µM (inactive) | 76.7 µM (inactive) | 84.5 µM (inactive) | 42 µM (inactive) | 46 µM (inactive) | 62.4 µM (inactive) | 40.7 µM (inactive) | 38.3 µM (inactive) | 34.4 µM (inactive)
O=C1c2ccccc2C(=O)c2c1ccc1c2N=C(c2ccc(Br)cc2)CC(c2cccc3ccccc23)N1 (stereo unspecified) | > 100 µM (inactive) | > 10 µM (inactive) | > 100 µM (inactive) | > 100 µM (inactive) | > 100 µM (inactive) | > 100 µM (inactive) | > 100 µM (inactive) | > 100 µM (inactive) | > 100 µM (inactive) | > 100 µM (inactive) | > 100 µM (inactive) | > 100 µM (inactive) | > 100 µM (inactive) | > 100 µM (inactive) | > 100 µM (inactive) | > 100 µM (inactive) | > 100 µM (inactive) | > 100 µM (inactive) |  | 
COC(=O)C1=C(O)c2cc(OC)c(OC)c(OC)c2[C@H](c2cc(OC)c(OC)c(OC)c2)C1C(=O)OC (stereo partly specified) | 59.8 µM (inactive) | 22.2 µM (inactive) | 26 µM (inactive) | > 100 µM (inactive) | 14.2 µM (inactive) | 49.3 µM (inactive) | 41.9 µM (inactive) | 20.7 µM (inactive) | 46.8 µM (inactive) | 55.5 µM (inactive) | 7.18 µM (inactive) | > 100 µM (inactive) | 22.8 µM (inactive) | 21.8 µM (inactive) | 24.5 µM (inactive) | 13.5 µM (inactive) | 36.2 µM (inactive) | 35 µM (inactive) | 37.6 µM (inactive) | 
COc1ccc(C[C@H](N)C(=O)N2C[C@@H](CO)C[C@@H](n3ccc(=O)[nH]c3=O)C2)cc1 | > 100 µM (inactive) | > 100 µM (inactive) | > 100 µM (inactive) | > 100 µM (inactive) | > 100 µM (inactive) | > 100 µM (inactive) | > 100 µM (inactive) | > 100 µM (inactive) | > 100 µM (inactive) | > 100 µM (inactive) | > 100 µM (inactive) | > 100 µM (inactive) | > 100 µM (inactive) | > 100 µM (inactive) | > 100 µM (inactive) | > 100 µM (inactive) | > 100 µM (inactive) | > 100 µM (inactive) | > 100 µM (inactive) | 
Cc1cccc(=O)c([O-])c1.Cc1cccc(=O)c([O-])c1.[Bi+3].[Cl-] | 14 µM (inactive) | 5.12 µM (inactive) | 7.55 µM (inactive) | 17.5 µM (inactive) | 12 µM (inactive) | 11.9 µM (inactive) | 11.5 µM (inactive) | 8.39 µM (inactive) | 7.31 µM (inactive) | 15.9 µM (inactive) | 4.32 µM (inactive) | 14.9 µM (inactive) | 11.4 µM (inactive) | 5.94 µM (inactive) | 4.46 µM (inactive) | 2.03 µM (inactive) | 12.3 µM (inactive) | 22.5 µM (inactive) | 3.33 µM (inactive) | 
Cc1c(C(=O)C/C(=N/NC(=O)CC#N)C(N)=O)[n+]([O-])c2ccccc2[n+]1[O-] | > 100 µM (inactive) | 35.6 µM (inactive) | 34.5 µM (inactive) | > 100 µM (inactive) | 37.8 µM (inactive) | 32.3 µM (inactive) | > 100 µM (inactive) | > 100 µM (inactive) | 54 µM (inactive) | > 100 µM (inactive) | 38.4 µM (inactive) | > 100 µM (inactive) | 78 µM (inactive) | > 100 µM (inactive) | 52.1 µM (inactive) | 19.8 µM (inactive) | 20.5 µM (inactive) | > 100 µM (inactive) | 28.1 µM (inactive) | 
COc1cc(CC2c3cc(OC)c(OC)cc3CCN2C)c(Oc2cc3c(cc2OC)-c2c(OC)c(OC)c(OC)c4c2C(C3)N(C)CC4)cc1OC (stereo unspecified) | 17.3 µM (inactive) | 4.52 µM (inactive) | 2.4 µM (inactive) | 15.4 µM (inactive) | 13 µM (inactive) | 2.49 µM (inactive) | 7.93 µM (inactive) | 2.9 µM (inactive) | 15.8 µM (inactive) | 16.6 µM (inactive) | 15.6 µM (inactive) | 16.2 µM (inactive) | 8.77 µM (inactive) | 9.64 µM (inactive) | 2.63 µM (inactive) | 11.7 µM (inactive) | 14.3 µM (inactive) | 19.7 µM (inactive) | 11.7 µM (inactive) | 
